Measured values published in article PMC9127750, “Structure-based design of CDC42 effector interaction inhibitors for the treatment of cancer” (Cell reports, 2022).
Where “and” joins values, the source holds several entries; their conditions need not be identical. Equal values may be shown once.

Tested on: WM3248 melanoma cells, 486 antibodies
Assay: Reverse phase protein arrays (RPPA)
Format: cell-based, Human
Text: Pellets were snap frozen in liquid nitrogen and shipped to MD Anderson Cancer Center core RPPA facility for RPPA analysis (Table S5). Three biological replicates for each sample were generated.
Nomenclatures on the RPPA heatmaps: name_of_antibody.species_of_antibody.status_of_antibody. V - antibody validated; C - validation of antibody in progress; Q - antibody nonspecific; E – under evaluation; antibodies raised in M - mouse, G - goat, R - rabbit, or T - rat.

[1] = Norm_20: replicates 1-3 and Average, relative to 0
[2] = Norm_20, replicates 1-3 and Average, relative to Norm_0

CN(C)c1cccc(Nc2cc(-c3ccccc3)nc(C3CCNCC3)n2)c1 [ARN22089, N1,N1-dimethyl-N3-(6-phenyl-2-(piperidin-4-yl)pyrimidin-4-yl)benzene-1,3-diamine]
Shc_pY317.R.C normalized RPPA signal [1]: 0.757 and 1.584 and 1.301 and 1.214 | Slfn11.G.C normalized RPPA signal [1]: 1.108 and 1.363 and 1.188 | Smac.M.Q normalized RPPA signal [1]: 0.931 and 0.960 and 0.983 and 0.958 | Smad1.R.V normalized RPPA signal [1]: 0.987 and 0.977 and 1.047 and 1.004 | Smad3.R.V normalized RPPA signal [1]: 1.165 and 1.119 and 1.154 | Smad4.R.V normalized RPPA signal [1]: 1.296 and 1.077 and 0.835 | Snail.M.Q normalized RPPA signal [1]: 0.600 and 0.686 and 0.609 and 0.632 | Sox2.R.V normalized RPPA signal [1]: 1.375 and 1.408 and 0.996 and 1.260 | Sox17.R.V normalized RPPA signal [1]: 0.910 and 0.971 and 1.024 and 0.968 | Src.M.V normalized RPPA signal [1]: 0.856 and 0.994 and 0.844 and 0.898 | Src_pY416.R.V normalized RPPA signal [1]: 0.922 and 0.983 and 0.992 | Src_pY527.R.V normalized RPPA signal [1]: 1.101 and 1.696 and 1.289 | Stat1_pY701.R.V normalized RPPA signal [1]: 0.978 and 0.992 and 1.003 | Stat3.R.C normalized RPPA signal [1]: 0.916 and 0.933 and 0.984 and 0.944 | Stat3_pY705.R.C normalized RPPA signal [1]: 1.624 and 1.373 and 1.082 and 1.360 | Stat5a.R.V normalized RPPA signal [1]: 0.918 and 1.001 and 1.032 | Stathmin.1.R.V normalized RPPA signal [1]: 1.002 and 0.917 and 0.896 and 0.939 | Syk.M.V normalized RPPA signal [1]: 0.729 and 0.896 and 0.950 and 0.859 | Synaptophysin.R.C normalized RPPA signal [1]: 1.010 and 0.835 and 0.914 and 0.920 | TAZ.R.V normalized RPPA signal [1]: 0.593 and 0.609 and 0.746 | TEAD.R.C normalized RPPA signal [1]: 0.753 and 0.847 and 1.189 and 0.929 | TFAM.R.V normalized RPPA signal [1]: 1.017 and 0.908 and 0.988 | TFRC.R.V normalized RPPA signal [1]: 0.954 and 0.936 and 0.905 | TIGAR.R.V normalized RPPA signal [1]: 1.016 and 1.029 (2×) | TRAP1.M.V normalized RPPA signal [1]: 0.880 and 0.858 and 0.987 and 0.908 | TRIM24.R.C normalized RPPA signal [1]: 0.971 and 1.220 and 0.935 | TRIM25.R.C normalized RPPA signal [1]: 0.761 and 0.842 and 1.250 | TRIP13.R.V normalized RPPA signal [1]: 0.937 and 1.026 and 0.990 and 0.984 | Tau.M.C normalized RPPA signal [1]: 1.361 and 0.904 and 1.112 | Transglutaminase.M.V normalized RPPA signal [1]: 0.939 and 1.702 and 2.431 and 1.691 | A.Raf.R.V RPPA signal, normalized [2]: 1.150 and 0.931 and 1.016 | A.Raf_pS299.R.C RPPA signal, normalized [2]: 0.948 and 1.046 and 0.962 and 0.985 | ACC1.R.C RPPA signal, normalized [2]: 0.841 and 0.807 and 0.895 | ACC_pS79.R.V RPPA signal, normalized [2]: 1.085 and 0.894 and 1.442 and 1.140 | ACLY_pS455.R.V RPPA signal, normalized [2]: 0.968 and 1.117 and 1.143 and 1.076 | ACSL1.R.V RPPA signal, normalized [2]: 0.997 and 1.027 and 1.096 | ACVRL1.R.C RPPA signal, normalized [2]: 0.959 and 0.966 and 0.988 | ADAR1.M.V RPPA signal, normalized [2]: 1.103 and 1.393 and 0.980 and 1.159 | ALKBH5.R.V RPPA signal, normalized [2]: 1.265 and 1.161 and 1.050 and 1.159 | AMPK.a2_pS345.R.V RPPA signal, normalized [2]: 0.925 and 1.020 and 1.006 | AMPKa.R.C RPPA signal, normalized [2]: 0.976 and 1.132 and 1.050 | AMPKa_pT172.R.C RPPA signal, normalized [2]: 1.665 and 1.252 and 2.191 and 1.703 | AR.R.V RPPA signal, normalized [2]: 1.167 and 0.791 and 1.202 and 1.053 | ARID1A.R.C RPPA signal, normalized [2]: 2.135 and 2.023 and 0.945 and 1.701 | ASNS.R.V RPPA signal, normalized [2]: 1.259 and 1.098 (2×) | ATM.R.V RPPA signal, normalized [2]: 0.728 and 0.823 and 1.123 and 0.891 | ATM_pS1981.R.V RPPA signal, normalized [2]: 0.946 and 1.124 and 1.011 and 1.027 | ATP5A.M.C RPPA signal, normalized [2]: 1.004 and 1.426 and 2.191 and 1.541 | ATP5H.R.V RPPA signal, normalized [2]: 1.249 and 1.351 and 1.098 and 1.232 | ATR.R.V RPPA signal, normalized [2]: 0.925 and 0.998 and 0.989 | ATRX.R.C RPPA signal, normalized [2]: 0.884 and 1.433 and 1.198 and 1.172 | ATR_pS428.R.C RPPA signal, normalized [2]: 0.919 and 0.961 and 1.020 | AceCS1.R.V RPPA signal, normalized [2]: 1.098 and 1.011 and 1.293 and 1.134 | Akt1.R.V RPPA signal, normalized [2]: 0.716 and 0.687 and 1.263 and 0.889 | Akt1_pS473.R.V RPPA signal, normalized [2]: 0.845 and 0.816 and 0.918 | Akt2.R.V RPPA signal, normalized [2]: 0.702 and 0.698 and 0.824 | Akt2_pS474.R.C RPPA signal, normalized [2]: 0.820 and 1.141 and 0.958 | Akt.R.V RPPA signal, normalized [2]: 0.842 and 0.873 and 1.113 and 0.943 | Akt_pS473.R.V RPPA signal, normalized [2]: 0.693 and 1.281 and 1.006 | Akt_pT308.R.V RPPA signal, normalized [2]: 1.208 and 0.954 and 1.057 | Ambra1_pS52.R.C RPPA signal, normalized [2]: 0.983 and 1.063 and 0.981 and 1.009 | Annexin.I.M.V RPPA signal, normalized [2]: 0.955 and 0.906 and 1.304 and 1.055 | Annexin.VII.M.V RPPA signal, normalized [2]: 0.988 and 0.859 and 0.972 | Atg3.R.V RPPA signal, normalized [2]: 1.054 and 0.860 and 1.003 and 0.972 | Atg4B.R.C RPPA signal, normalized [2]: 0.929 and 1.167 and 0.972 and 1.023 | Atg5.R.C RPPA signal, normalized [2]: 1.021 and 0.787 and 1.106 and 0.971 | Atg7.R.V RPPA signal, normalized [2]: 0.883 and 0.847 and 0.979 and 0.903 | Aurora.A.R.C RPPA signal, normalized [2]: 1.019 and 1.110 and 1.013 | Aurora.ABC_pT288_pT232_pT198.R.C RPPA signal, normalized [2]: 0.769 and 0.934 | Aurora.B.R.V RPPA signal, normalized [2]: 1.525 and 1.546 and 1.302 and 1.458 | Axl.R.V RPPA signal, normalized [2]: 0.924 and 0.799 and 1.335 and 1.019 | B7.H3.R.C RPPA signal, normalized [2]: 1.111 and 0.745 and 0.965 and 0.940 | B7.H4.R.C RPPA signal, normalized [2]: 0.904 and 0.914 and 0.952 | B.Raf.R.C RPPA signal, normalized [2]: 0.818 and 0.836 and 1.274 and 0.976 | B.Raf_pS445.R.V RPPA signal, normalized [2]: 0.809 and 0.807 and 1.065 and 0.893 | BAP1.M.V RPPA signal, normalized [2]: 0.987 and 0.925 and 1.001 | BCL2A1.R.V RPPA signal, normalized [2]: 0.937 and 1.262 and 1.127 | BMK1.Erk5_pT218_Y220.R.V RPPA signal, normalized [2]: 0.876 and 0.918 and 0.861 and 0.885 | BRCA1.M.C RPPA signal, normalized [2]: 1.226 and 1.030 and 1.116 | BRD4.R.V RPPA signal, normalized [2]: 1.775 and 1.486 and 0.963 and 1.408 | Bad_pS112.R.V RPPA signal, normalized [2]: 1.169 | Bak.R.C RPPA signal, normalized [2]: 1.030 and 0.930 and 1.021 and 0.994
